Measurements published in patent US20250316361A1, “SYSTEMS AND METHODS FOR ESTIMATING, FROM FOOD FREQUENCY QUESTIONNAIRE BASED NUTRIENTS INTAKE DATA, THE RELATIVE AMOUNTS OF FAECALIBACTERIUM PRAUSNITZII (FPRAU) IN THE GUT MICROBIOME ECOSYSTEM AND ASSOCIATED RECOMMENDATIONS TO IMPROVE FAECALIBACTERIUM PRAUSNITZII” (SOCIETE DES PRODUITS NESTLE S.A., priority 2021, published 2025).

Assays:
[1] = tested on: Faecalibacterium ASVs (ASV6); assay: in vitro stool fermentation, 16S microbial rRNA gene sequencing of Faecalibacterium ASVs; format: cell-based, Faecalibacterium prausnitzii
Description: (§1) Stool samples were collected from a healthy adult donor under human study protocol. Upon the reception of the stool samples, small aliquots were prepared with storage buffer (PBS and 10% glycerol) and were stored at −80 degrees Celsius before use. For each experiment, 250 μL of stool aliquot was inoculated in a 10 mL Hungate tube filled with a minimal bacteria culture media under a strict anaerobic condition (Oxygen <3 ppm) inside of an anaerobic chamber. Different nutrients or nutrient combinations, shown in Table 1, were added to the culture media at time 0 and the tubes were incubated at 37 degrees Celsius for 24 or 48 hours. The growth of Faecalibacterium prausnitzii (F. prau) was examined by two methods: quantitative PCR specifically targeting F. prau and 16S microbial rRNA gene sequencing.
F. prau is heterogenic and genetically diverse. Thus, in this next experiment, we examined if nutrient or nutrient combinations favor specific F. prau to grow in a mixed community.

[2] = tested on: Faecalibacterium prausnitzii (F. prau); assay: in vitro stool fermentation, quantitative PCR specifically targeting F. prau; format: cell-based; details: stool inoculum in minimal media, anaerobic, 37 degrees Celsius
Description: as §1
First, we examined the absolute quantity of F. prau in the community after 24 or 48 hours (FIGS. 6A and 6B).

inulin was tested, and the “response of Faecalibacterium ASV1, 6, 9, 12 and 13” value ([1]; 14 genetically different Faecalibacterium found, time not stated) was “responded positively”, the “response of F. prau ASV6 (figure legend)” value ([1]; samples collected after 24 hours and after 48 hours, FIG. 7) was “responded” and the “absolute quantity of F. prau in the community versus control” value ([2]; 24 hours, FIG. 6A) was “at least twice as much as control”. The “absolute quantity of F. prau in the community” value ([2]; 48 hours, FIG. 6B) was “able to maintain a high amount of F. prau”.
